In patent US10308667B2, “Oxadiazolopyridine derivatives for use as ghrelin O-acyl transferase (GOAT) inhibitors” (Boehringer Ingelheim International GmbH, priority 2016, dated 2019) one finds IC50 data, which are given here for 34 compounds.

pIC50: −log10 of the molar value.

The target in this test is human GOAT (Homo sapiens (Human), UniProt Q96T53). Briefly: Determination of hGOAT Activity in HEK293 Cells after Incubation with Test Compound. The test is classed as cell-based. Particulars: HEK293 cells stably transfected with preproghrelin and human GOAT; octanoate-BSA 100 μM; acyl-ghrelin in medium by ELISA after 5 hours. Summed up: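 HEK293 cells stably expressing preproghrelin and human GOAT were given serum-free medium with 100 μM octanoate-BSA plus compound (0.3% DMSO) for 5 h. Acyl-ghrelin in the medium was quantified by ELISA (A405, standard curve) as % of vehicle. IC50 was fitted from 8 concentrations.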
Sequence of human GOAT (Q96T53 whole entry): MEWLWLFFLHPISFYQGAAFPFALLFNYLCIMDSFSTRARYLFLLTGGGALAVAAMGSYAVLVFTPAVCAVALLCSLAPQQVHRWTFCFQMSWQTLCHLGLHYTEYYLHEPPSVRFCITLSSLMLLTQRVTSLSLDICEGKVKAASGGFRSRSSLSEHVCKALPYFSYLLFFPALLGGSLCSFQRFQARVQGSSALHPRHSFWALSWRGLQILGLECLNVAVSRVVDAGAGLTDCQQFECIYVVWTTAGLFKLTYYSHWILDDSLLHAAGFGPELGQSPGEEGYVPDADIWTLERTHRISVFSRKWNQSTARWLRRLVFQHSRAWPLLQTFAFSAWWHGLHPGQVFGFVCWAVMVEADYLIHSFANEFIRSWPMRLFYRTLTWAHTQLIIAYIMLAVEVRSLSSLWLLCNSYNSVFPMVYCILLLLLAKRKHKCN
With `Cc1nc2nonc2c(N)c1Cc1ccc(Br)c(N2CCOCC2)n1` [Example 123, 6-(5-Bromo-6-morpholin-4-yl-pyridin-2-ylmethyl)-5-methyl-[1,2,5]oxadiazolo[3,4-b]pyridin-7-ylamine], the pIC50 was 10.59.

The compound `Cc1nc2nonc2c(N)c1Cc1ccc(Br)c(NCC(C)(C)C(N)=O)n1` [Example 124, 3-[6-(7-Amino-5-methyl-[1,2,5]oxadiazolo[3,4-b]pyridin-6-ylmethyl)-3-bromo-pyridin-2-ylamino]-2,2-di methyl-propionamide] gave a pIC50 of 10.25. Compared with the last compound, the pIC50 is 0.34 log units lower.

As to `Cc1nc2nonc2c(N)c1Cc1ccc(Br)c(NC2CC2)n1` [Example 125, 6-(5-Bromo-6-cyclopropylamino-pyridin-2-ylmethyl)-5-methyl-[1,2,5]oxadiazolo[3,4-b]pyridin-7-ylamine], the pIC50 is 10.42.

Compound `Cc1nc2nonc2c(N)c1Cc1ccc(Br)c(NCC2(C)CCOC2)n1` (stereo not shown) [Example 126, 6-{5-Bromo-6-[(3-methyl-tetrahydro-furan-3-ylmethyl)-amino]-pyridin-2-ylmethyl}-5-methyl-[1,2,5]oxadiazolo[3,4-b]pyridin-7-ylamine] showed a pIC50 of 9.77.

The compound `Cc1nc2nonc2c(N)c1Cc1ccc(Br)c(NCC(C)(C)C#N)n1` [Example 127, 3-[6-(7-Amino-5-methyl-[1,2,5]oxadiazolo[3,4-b]pyridin-6-ylmethyl)-3-bromo-pyridin-2-ylamino]-2,2-di methyl-propionitrile] had a pIC50 of 10.00.

In the case of `Cc1nc2nonc2c(N)c1Cc1ccc(Br)c(NC2CC(F)(F)C2)n1` [Example 128, 6-[5-Bromo-6-(3,3-difluoro-cyclobutylamino)-pyridin-2-ylmethyl]-5-methyl-[1,2,5]oxadiazolo[3,4-b]pyridin-7-ylamine], the pIC50 was 10.02.

For `Cc1nc2nonc2c(N)c1Cc1ccc(C#N)c(NCC2(C)COC2)n1` [Example 135, 6-(7-Amino-5-methyl-[1,2,5]oxadiazolo[3,4-b]pyridin-6-ylmethyl)-2-[(3-methyl-oxetan-3-ylmethyl)-amino]-nicotinonitrile], the pIC50 was 9.70.

Consider `Cc1nc2nonc2c(N)c1Cc1ccc(C#N)c(N2CCOCC2)n1` [Example 136, 6-(7-Amino-5-methyl-[1,2,5]oxadiazolo[3,4-b]pyridin-6-ylmethyl)-2-morpholin-4-yl-nicotinonitrile], for which the pIC50 is 10.48.

For `Cc1nc2nonc2c(N)c1Cc1ccc(C#N)c(N2CC3(COC3)C2)n1` [Example 137, 6-(7-Amino-5-methyl-[1,2,5]oxadiazolo[3,4-b]pyridin-6-ylmethyl)-2-(2-oxa-6-aza-spiro[3.3]hept-6-yl)-nicotinonitrile], the pIC50 is 10.27. Compared with the last compound, the pIC50 is 0.21 log units lower.

With `Cc1nc2nonc2c(N)c1Cc1ccc(C#N)c(N2CC(C)(O)C2)n1` [Example 138, 6-(7-Amino-5-methyl-[1,2,5]oxadiazolo[3,4-b]pyridin-6-ylmethyl)-2-(3-hydroxy-3-methyl-azetidin-1-yl)-nicotinonitrile], the pIC50 was 10.12.

As to `Cc1nc2nonc2c(N)c1Cc1ccc(C#N)c(NC2CC2)n1` [Example 139, 6-(7-Amino-5-methyl-[1,2,5]oxadiazolo[3,4-b]pyridin-6-ylmethyl)-2-cyclopropylamino-nicotinonitrile], the pIC50 was 10.70.

The compound `Cc1nc2nonc2c(N)c1Cc1ccc(C#N)c(NC2CC(F)(F)C2)n1` [Example 140, 6-(7-Amino-5-methyl-[1,2,5]oxadiazolo[3,4-b]pyridin-6-ylmethyl)-2-(3,3-difluoro-cyclobutylamino)-nicotinonitrile] had a pIC50 of 9.82.

`Cc1nc2nonc2c(N)c1Cc1ccc(C#N)c(N2CCNC(=O)CC2)n1` [Example 141, 6-(7-Amino-5-methyl-[1,2,5]oxadiazolo[3,4-b]pyridin-6-ylmethyl)-2-(5-oxo-[1,4]diazepan-1-yl)-nicotinonitrile] gave a pIC50 of 9.85.

Consider `Cc1nc2nonc2c(N)c1Cc1ccc(C#N)c(N2CC(F)(F)C2)n1` [Example 142, 6-(7-Amino-5-methyl-[1,2,5]oxadiazolo[3,4-b]pyridin-6-ylmethyl)-2-(3,3-difluoro-azetidin-1-yl)-nicotinonitrile], for which the pIC50 is 10.57. Compared with the last compound, the pIC50 is 0.72 log units higher.

`Cc1nc2nonc2c(N)c1Cc1ccc(C#N)c(N2CCC(F)(F)C2)n1` [Example 143, 6-(7-Amino-5-methyl-[1,2,5]oxadiazolo[3,4-b]pyridin-6-ylmethyl)-2-(3,3-difluoro-pyrrolidin-1-yl)-nicotinonitrile] showed a pIC50 of 10.34. Against the preceding compound, the pIC50 is 0.23 log units lower.

For the compound `Cc1nc2nonc2c(N)c1Cc1ccc(C#N)c(NCCC(F)F)n1` [Example 144, 6-(7-Amino-5-methyl-[1,2,5]oxadiazolo[3,4-b]pyridin-6-ylmethyl)-2-(3,3-difluoro-propylamino)-nicotinonitrile], the negative logarithm of the IC50 (pIC50) was 10.26. This pIC50 and that of the compound before are within 0.2 log units of each other.

`Cc1nc2nonc2c(N)c1Cc1ccc(C#N)c(NCCC(F)(F)F)n1` [Example 145, 6-(7-Amino-5-methyl-[1,2,5]oxadiazolo[3,4-b]pyridin-6-ylmethyl)-2-(3,3,3-trifluoro-propylamino)-nicotinonitrile] showed a pIC50 of 9.49. This pIC50 lies 0.77 log units lower than the previous one.

On to `Cc1nc2nonc2c(N)c1Cc1ccc(C#N)c(NCC(C)(C)C#N)n1` [Example 146, 6-(7-Amino-5-methyl-[1,2,5]oxadiazolo[3,4-b]pyridin-6-ylmethyl)-2-(2-cyano-2,2-dimethyl-ethylamino)-nicotinonitrile], for which the pIC50 is 8.96.

As for `Cc1nc2nonc2c(N)c1Cc1ccc(C#N)c(NCC2(C)CCOC2)n1` (stereo not shown) [Example 147, 6-(7-Amino-5-methyl-[1,2,5]oxadiazolo[3,4-b]pyridin-6-ylmethyl)-2-[(3-methyl-tetrahydro-furan-3-ylmethyl)-amino]-nicotinonitrile], the pIC50 was 9.60.

For `Cc1nc2nonc2c(N)c1Cc1ccc(C#N)c(NCC(C)(C)C(N)=O)n1` [Example 148, 3-[6-(7-Amino-5-methyl-[1,2,5]oxadiazolo[3,4-b]pyridin-6-ylmethyl)-3-cyano-pyridin-2-ylamino]-2,2-dimethyl-propionamide], the pIC50 was 9.82.

`Cc1nc2nonc2c(N)c1Cc1ccc(C#N)c(NCCCF)n1` [Example 149, 6-(7-Amino-5-methyl-[1,2,5]oxadiazolo[3,4-b]pyridin-6-ylmethyl)-2-(3-fluoro-propylamino)-nicotinonitrile] showed a negative logarithm of the IC50 (pIC50) of 10.57.

Regarding `Cc1nc2nonc2c(N)c1Cc1ccc(N2CCC(F)(F)C2)c(C#N)n1` [Example 150, 6-(7-Amino-5-methyl-[1,2,5]oxadiazolo[3,4-b]pyridin-6-ylmethyl)-3-(3,3-difluoro-pyrrolidin-1-yl)-pyridine-2-carbonitrile], the pIC50 is 8.64.

`Cc1nc2nonc2c(N)c1Cc1ccc(N2CC(F)(F)C2)c(C#N)n1` [Example 151, 6-(7-Amino-5-methyl-[1,2,5]oxadiazolo[3,4-b]pyridin-6-ylmethyl)-3-(3,3-difluoro-azetidin-1-yl)-pyridine-2-carbonitrile] showed a negative logarithm of the IC50 (pIC50) of 8.74.

Compound `Cc1nc2nonc2c(N)c1Cc1ccc(N2CCOCC2)c(C#N)n1` [Example 152, 6-(7-Amino-5-methyl-[1,2,5]oxadiazolo[3,4-b]pyridin-6-ylmethyl)-3-morpholin-4-yl-pyridine-2-carbonitrile] gave a pIC50 of 9.22.

With `Cc1nc2nonc2c(N)c1Cc1ccc(NCCF)c(C#N)n1` [Example 153, 6-(7-Amino-5-methyl-[1,2,5]oxadiazolo[3,4-b]pyridin-6-ylmethyl)-3-(2-fluoro-ethylamino)-pyridine-2-carbonitrile], the pIC50 was 9.25. The pIC50 values of the last two compounds are within 0.2 log units of each other.

Regarding `Cc1nc2nonc2c(N)c1Cc1ccc(NCC(F)F)c(C#N)n1` [Example 154, 6-(7-Amino-5-methyl-[1,2,5]oxadiazolo[3,4-b]pyridin-6-ylmethyl)-3-(2,2-difluoro-ethylamino)-pyridine-2-carbonitrile], the pIC50 is 9.77.

In the case of `Cc1nc2nonc2c(N)c1Cc1ccc(-n2cc(F)cn2)c(C#N)n1` [Example 155, 6-(7-Amino-5-methyl-[1,2,5]oxadiazolo[3,4-b]pyridin-6-ylmethyl)-3-(4-fluoro-pyrazol-1-yl)-pyridine-2-carbonitrile], the negative logarithm of the IC50 (pIC50) is 8.92. This pIC50 lies 0.85 log units lower than the previous one.

Compound `Cc1nc2nonc2c(N)c1Cc1ccc(-n2ccc(C(F)(F)F)n2)c(C#N)n1` [Example 156, 6-(7-Amino-5-methyl-[1,2,5]oxadiazolo[3,4-b]pyridin-6-ylmethyl)-3-(3-trifluoromethyl-pyrazol-1-yl)-pyridine-2-carbonitrile] gave a negative-log IC50 (pIC50) of 8.46.

The compound `Cc1nc2nonc2c(N)c1Cc1ccc(-n2cccn2)c(C#N)n1` [Example 157, 6-(7-Amino-5-methyl-[1,2,5]oxadiazolo[3,4-b]pyridin-6-ylmethyl)-3-pyrazol-1-yl-pyridine-2-carbonitrile] showed a pIC50 of 9.59.

`Cc1nc2nonc2c(N)c1Cc1ccc(C#N)c(C#N)n1` [Example 158, 6-(7-Amino-5-methyl-[1,2,5]oxadiazolo[3,4-b]pyridin-6-ylmethyl)-pyridine-2,3-dicarbonitrile] gave a pIC50 of 8.77.

Consider `Cc1nc2nonc2c(N)c1Cc1ccc(S(C)(=O)=O)c(O)n1` [Example 159, 6-(7-Amino-5-methyl-[1,2,5]oxadiazolo[3,4-b]pyridin-6-ylmethyl)-3-methanesulfonyl-pyridin-2-ol], for which the pIC50 is 7.82.

Regarding `Cc1nc2nonc2c(N)c1Cc1ccc(S(C)(=O)=O)c(S(C)(=O)=O)n1` [Example 160, 6-(5,6-Bis-methanesulfonyl-pyridin-2-ylmethyl)-5-methyl-[1,2,5]oxadiazolo[3,4-b]pyridin-7-ylamine], the pIC50 was 8.52.

`Cc1nc2nonc2c(N)c1Cc1ccc(Br)c(S(C)(=O)=O)n1` [Example 161, 6-(5-Bromo-6-methanesulfonyl-pyridin-2-ylmethyl)-5-methyl-[1,2,5]oxadiazolo[3,4-b]pyridin-7-ylamine] showed a pIC50 of 9.05. Against the preceding compound, the pIC50 is 0.53 log units higher.

Regarding `Cc1nc2nonc2c(N)c1Cc1ccc(C#N)c(S(C)(=O)=O)n1` [Example 162, 6-(7-Amino-5-methyl-[1,2,5]oxadiazolo[3,4-b]pyridin-6-ylmethyl)-2-methanesulfonyl-nicotinonitrile], the pIC50 is 8.34.
